Key:
Sod2-KO mice = Sod2-KO mice (lifespan, heart SDH activity, liver Oil Red O staining); assay type: in vivo, mouse
Excerpt: Mice deficient in mitochondrial Mn-Superoxide Dismutase (Sod2-KO) on a CD1-background were used. This genetic alteration leads to an adverse phenotype and the death of animals at an average of 8 days old. Mitochondrial superoxide dismutase is a free radical scavenging enzyme which transforms superoxide (highly reactive) into hydrogen peroxide (less reactive), that could then cross mitochondrial membranes and be detoxified by matrix and cytosolic anti-oxidant systems. The aim of this study was to test if AOL could rescue the Sod2-KO phenotype through its activity on IQ superoxide production.
After birth, pups were genotyped (3 day-old) and the litter size was reduced to 6 pups per cage. Animals were then treated (AOL in Kolliphor®—5 mg/kg) or not (Kolliphor® only, noted KOL below). […] Two studies were conducted on two different generations from the same parents: lifespan; and succinate dehydrogenase activity in heart (SDH) and Oil Red O staining in liver. Animals were weighed and injected (intra-peritoneal) daily.
Succinate dehydrogenase activity is a marker of superoxide in the mitochondrial matrix. Thus, a lack of SOD2 is associated with a decrease of SDH activity in heart. The aim of this experiment was to test whether or not AOL could restore SDH activity in KO mice.
However, the direct link between superoxide/hydrogen peroxide production and liver lipid accumulation is not established. The aim of the study was to test the potency of AOL to prevent liver lipid accumulation in Sod2-KO mice.
Animals were injected once a day from 3 days old until their death.
In this study, animals were treated daily (5 mg/kg) from day 3 to day 5. Heart and liver were harvested at day 6.

[1] = system: retina (outer nuclear layer); assay: Progressive light-induced retinal degeneration; assay type: in vivo, rat; conditions: 6 mg/kg/day, three times a day, 7 days
Protocol: Rats bred under cyclic low-intensity lighting were transferred to cyclic high-intensity lighting for one week and divided into 3 groups (non-treated animals, vehicle-treated animals and AOL-treated animals). Treated animals received injections of vehicle or AOL at a dose of 6 mg/kg/day, three times a day for the 7 days of the transfer (30 minutes before light-ON; at […]). After one week, animals were transferred in the dark (D0).
A control group (“untransferred”) was not transferred to cyclic high-intensity lighting but received the same treatment as described above: injections of vehicle or AOL three times a day for 7 days, followed by a transfer in the dark (D0).
Animals were then sacrificed for histological analysis.

[2] = system: carcinoma cell lines A549 and H460; assay: Cytotoxicity, sulforhodamine B (SRB) assay; assay type: cell-based, human; conditions: 48 hours
Protocol: Human non-small cell carcinoma cell line H460 and A549 were obtained from ATCC. Cells were cultured in growth medium consisting of DMEM (GIBCO), 10% FBS (GIBCO) and 100 units of penicillin and 100 μg/mL streptomycin (GIBCO). The cells were maintained in either 75-cm^2 T-flasks or 175-cm^2 T-flasks (BD Biosciences) in an incubator (model 3100 series, Forma Scientific, Marietta, Ohio) controlled at 37° C., 95% humidity, and 5% CO2. Cell culture medium was refreshed every other day. Every 2 to 3 days, H460 and A549 cultures were detached from the flasks using a 0.25% trypsin solution (Gibco) and subcultured. All cultures were maintained at 80-90% confluence at the time of subculture.
Cytotoxicity screening was carried out by sulforhodamine B colorimetric assay. A549 and H460 cells (2·10^3) were seeded in a 96-well plate, and after adherence, cells were incubated with 5 to 500 μM of AOL or AOX or control dimethyl sulfoxide (DMSO). Cytotoxicity was evaluated after 48 hours treatment sulforhodamine B (SRB) assay, according to Vichai (Vichai et al., 2006. Nat. Protoc. 1(3):1112-6).

[3] = system: isolated rat heart mitochondria; assay: Mitochondrial ATP synthesis (phosphorylation rate, pH electrode); assay type: biochemical
Protocol: Male Wistar rats (250-325 g; obtained from Janvier Labs, Le Genest-Saint-Isle, France) were killed by stunning and cervical dislocation, and the heart was quickly removed and washed in cold isolation medium containing 100 mM sucrose, 180 mM KCl, 50 mM Tris, 5 mM MgCl2, 10 mM EDTA, and 0.1% (w/v) defatted BSA (pH 7.2).
Isolation of heart mitochondria was performed in a cold chamber. Before homogenization, hearts (about 1.5 g) were minced with scissors and treated for 5 minutes in 5 mL of the same medium supplemented with protease (2 mg of bacterial proteinase type XXIV per mL of isolation buffer) with stirring. The tissue suspension was poured into a 50-mL glass Potter homogenizer, diluted with 20 mL of isolation buffer, then homogenized for 3 minutes using a motorized Teflon pestle. The homogenate was filtered through bolting cloth (Sefar Nitex) to remove debris, and centrifuged at 8,000 g for 10 minutes. The resulting pellet was rinsed with 5 mL of isolation buffer, resuspended in 25 ml of the same buffer, then subjected to low speed centrifugation (400 g) for 8 minutes. […] Protein concentration was determined by the Bradford method (Sigma, kit # B6916) using BSA as standard. […]
ATP synthesis was measured under the same conditions using a high sensitivity pH electrode (Metrohm) as previously described (Gouspillou et al., 2014. Aging Cell. 13(1):39-48).

[4] = 5 mg/kg daily, day 3 to day 5, Oil Red O

SMILES	SDH activity in heart of KO mice (Sod2-KO mice; 5 mg/kg daily, day 3 to day 5)	liver lipid droplets density in KO mice (Sod2-KO mice; [4])	liver total lipid area in KO mice (Sod2-KO mice; [4])	lifespan extension compared to untreated KO mice (Sod2-KO mice; 5 mg/kg i.p. daily from 3 days old)	body weight and body weight gain of KO mice (Sod2-KO mice; 5 mg/kg i.p. daily, day 8 to 12)	thickness of the outer nuclear layer (ONL) ([1]; transferred to cyclic high-intensity lighting)	thickness of the outer nuclear layer (ONL) ([1]; untransferred control group)	concentrations without significant toxicity [2]	IC50 ([2]; Homo sapiens, 0 to 500 μM, read-out: IC50 for high dose toxicity)	concentration that completely abolishes phosphorylation rate [3]	concentrations that do not modify ATP synthesis [3]
COc1ccc(-c2cc(=S)ss2)cc1 [AOL, 5-(4-methoxyphenyl)-3H-1,2-dithiole-3-thione]	only a very slight increase in SDH activity	lipid droplets density decreased	able to restore the total lipid area	up to 2 days	tends to alleviate this effect	significant increase of the thickness of the ONL	no effect on ONL's thickness	–	–	–	–
Oc1ccc(-c2cc(=S)ss2)cc1 [AOX, 5-(4-hydroxyphenyl)-3H-1,2-dithiole-3-thione]	–	–	–	–	–	–	–	lower than 100 μM	134.8 ± 0.3 µM	60 µM	lower than 20 μM
